Source: ChEMBL document CHEMBL5104160, “In vitro and in vivo neuroprotective effect of novel mPGES-1 inhibitor in animal model of Parkinson's disease” (Bioorg Med Chem Lett, 2022)
Activity calls are given as the source filed them. No cut-off for these calls is given here.

What was measured:
[1] = Inhibition of PGE2 production in LPS-induced mouse RAW264.7 cells; assay type: functional, cell-based
RAW264.7 [2] = assay: Cytotoxicity against mouse RAW264.7 cells assessed as decrease in cell viability at 1 uM; assay type: toxicity, cell-based; conditions: raw264.7, 1 µM
RAW264.7 [3] = assay: Cytotoxicity against mouse RAW264.7 cells assessed as decrease in cell viability at 100 to 1000 nM; assay type: toxicity, cell-based; conditions: raw264.7, 1 µM, dose 100-1000 nM
A549 = assay: Inhibition of PGE2 production in IL-1beta-induced human A549 cells assessed as decrease in PGE2 production measured after 24 hrs by enzyme immunoassay; assay type: functional, cell-based; conditions: A549, 24 h
Blood = assay: Inhibition of PGE2 production in LPS-induced human whole blood; assay type: functional, tissue-based
Prostaglandin E synthase = target: T1, Prostaglandin E synthase (Homo sapiens, UniProt O14684); assay: Inhibition of human mPGES-1 assessed as reduction in PGE2 production
T1 sequence (O14684 whole entry): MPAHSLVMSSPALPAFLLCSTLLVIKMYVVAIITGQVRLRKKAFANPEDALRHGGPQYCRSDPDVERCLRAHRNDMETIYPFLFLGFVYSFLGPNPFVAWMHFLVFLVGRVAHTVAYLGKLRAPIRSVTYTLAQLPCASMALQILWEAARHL

PC-12 [4] = assay: Neuroprotective activity against 6-OHDA-induced cytotoxicity in rat PC-12 cells at 10 uM measured after 12 hrs by MTT assay; assay type: functional, cell-based
PC-12 [5] = assay: Neuroprotective activity against 6-OHDA-induced cytotoxicity in rat PC-12 cells measured after 3 hrs by MTT assay; assay type: functional; conditions: read-out: ED50 (the source's name)
Mus musculus [6] = assay: Neuroprotective effect in 6-OHDA-induced lesioned mouse model of Parkinson's disease assessed as decrease in time to turn at 1 mg/kg/day, ip administered for 7 days measured by Pole test; assay type: functional, organism-based; conditions: time 7.0 day
Mus musculus [7] = assay: Neuroprotective effect in 6-OHDA-induced lesioned mouse model of Parkinson's disease assessed as decrease in time for locomotion activity at 1 mg/kg/day, ip administered for 7 days measured by Pole test; assay type: functional, organism-based; conditions: time 7.0 day
Mus musculus [8] = assay: Neuroprotective effect in 6-OHDA-induced lesioned mouse model of Parkinson's disease assessed as increase in latency time at 1 mg/kg/day, ip administered for 7 days measured by rotarod test; assay type: functional, organism-based; conditions: time 7.0 day
Mus musculus [9] = assay: Neuroprotective effect in 6-OHDA-induced lesioned mouse model of Parkinson's disease assessed as decrease in falling frequency at 1 mg/kg/day, ip administered for 7 days measured by rotarod test; assay type: functional, organism-based; conditions: time 7.0 day
Mus musculus [10] = assay: Neuroprotective activity against in 6-OHDA-induced neurotoxicity in mouse assessed as increase in tyrosine hydroxylase (TH)-positive fibers in striatum of brain at 1 mg/kg/day, ip administered for 7 days measured by immunohistochemistry analysis; assay type: functional, organism-based; conditions: time 7.0 day
Mus musculus [11] = assay: Neuroprotective activity against in 6-OHDA-induced neurotoxicity in mouse assessed as increase in tyrosine hydroxylase (TH)-positive neurons in substantia nigra pars compacta of brain at 1 mg/kg/day, ip administered for 7 days measured by immunohistochemistry analysis; assay type: functional, organism-based; conditions: time 7.0 day
Mus musculus [12] = assay: Neuroprotective effect in 6-OHDA-induced lesioned mouse model of Parkinson's disease assessed as decrease in time to turn at 80 mg/kg/day, po administered for 7 days measured by Pole test; assay type: functional, organism-based; conditions: time 7.0 day
Mus musculus [13] = assay: Neuroprotective effect in 6-OHDA-induced lesioned mouse model of Parkinson's disease assessed as decrease in time for locomotion activity at 80 mg/kg/day, po administered for 7 days measured by Pole test; assay type: functional, organism-based; conditions: time 7.0 day

| SMILES | IC50 [1] | Activity (RAW264.7 [2]) | further results |
| --- | --- | --- | --- |
| O=C(Oc1ccc([N+](=O)[O-])cc1)N(Nc1cccc(Cl)c1)S(=O)(=O)c1ccc(Cl)cc1 | 759 nM | Non-Toxic | – |
| Cc1cc(C)c(S(=O)(=O)N(Nc2ccccc2)C(=O)Oc2ccc(Oc3ccccc3)cc2)c(C)c1 | 177 nM | Non-Toxic | – |
| O=C(Oc1ccc(OCc2ccccc2)cc1)N(Nc1ccccc1)S(=O)(=O)c1ccc(-c2ccccc2)cc1 | 93 nM | Non-Toxic | – |
| O=C(Oc1ccc([N+](=O)[O-])cc1)N(Nc1ccc(Cl)cc1)S(=O)(=O)c1ccc(Cl)cc1 | 645 nM | Non-Toxic | – |
| Cc1cccc(NN(C(=O)Oc2ccc([N+](=O)[O-])cc2)S(=O)(=O)c2ccc(Cl)cc2)c1 | 806 nM | Non-Toxic | – |
| Cc1ccccc1NN(C(=O)Oc1ccccc1)S(=O)(=O)c1ccccc1 | 1000 nM | Non-Toxic | – |
| CC(C)(C)c1ccc(S(=O)(=O)N(Nc2ccccc2)C(=O)Oc2ccc(OCc3ccccc3)cc2)cc1 | – | Non-Toxic | – |
| N[C@@H](Cc1ccc(O)c(O)c1)C(=O)O | – | – | Activity (Mus musculus [12]): Active; Activity (Mus musculus [13]): Active |
| O=C(Oc1ccc(Oc2ccccc2)cc1)N(Nc1ccccc1)S(=O)(=O)c1ccc(-c2ccccc2)cc1 | 161 nM | Non-Toxic | – |
| O=C(Oc1ccccc1)N(Nc1ccccc1)S(=O)(=O)c1ccc(F)cc1 | – | Non-Toxic | – |
| O=C(Oc1ccccc1)N(Nc1ccccc1)S(=O)(=O)c1ccc(Br)cc1 | – | Non-Toxic | – |
| Cc1cc(C)c(S(=O)(=O)N(Nc2ccccc2)C(=O)Oc2ccc(OCc3ccccc3)cc2)c(C)c1 | – | Non-Toxic | – |

More lines, main results first:

| IC50 [1] | SMILES | Activity (RAW264.7 [2]) | further results |
| --- | --- | --- | --- |
| 47.1 nM | O=C(Oc1ccc(OCc2ccccc2)cc1)N(Nc1ccccc1)S(=O)(=O)c1ccc(C(F)(F)F)cc1 | Non-Toxic | – |
| 429 nM | O=C(Oc1cccc2c1CCC2)N(Nc1ccccc1)S(=O)(=O)c1ccc(Cl)cc1 | Non-Toxic | – |
| 41.8 nM | O=C(Oc1ccc(OCc2ccccc2)cc1)N(Nc1cccc(Cl)c1)S(=O)(=O)c1ccc(Cl)cc1 | Non-Toxic | Activity (RAW264.7 [3]): Non-Toxic; IC50 (A549): 145 nM; IC50 (Blood): 428 nM; IC50 (Prostaglandin E synthase): 1.16 nM; Activity (PC-12 [4]): Active; EC50 (PC-12 [5]): 3 nM; Activity (Mus musculus [6]): Active; Activity (Mus musculus [7]): Active; Activity (Mus musculus [8]): Active; Activity (Mus musculus [9]): Active; Activity (Mus musculus [10]): Active; Activity (Mus musculus [11]): Active |
| 398 nM | Cc1ccc(S(=O)(=O)N(Nc2ccccc2)C(=O)Oc2cccc3c2CCC3)cc1 | Non-Toxic | – |
| 246 nM | O=C(Oc1cccc2c1CCC2)N(Nc1ccccc1)S(=O)(=O)c1ccc(C(F)(F)F)cc1 | Non-Toxic | – |
| 313 nM | Cc1cc(C)c(S(=O)(=O)N(Nc2ccccc2)C(=O)Oc2cccc3c2CCC3)c(C)c1 | Non-Toxic | – |
| 434 nM | CCc1ccc(S(=O)(=O)N(Nc2ccccc2)C(=O)Oc2ccc(Oc3ccccc3)cc2)cc1 | Non-Toxic | – |
| 59.1 nM | O=C(Oc1ccc(OCc2ccccc2)cc1)N(Nc1ccccc1)S(=O)(=O)c1ccc(Cl)cc1 | Non-Toxic | – |
| > 1000 nM | Cc1ccccc1NN(C(=O)Oc1ccccc1)S(=O)(=O)c1ccc(Cl)cc1 | Non-Toxic | – |
